For the assay, the system named is HCV replicon I389luc-ubi-neo/NS3-3′/ET in ET (Huh-lucubineo-ET) cell line. The experiment in a line: Replicon assay (luciferase reporter). Format: cell-based. The note with it: Hepatitis C virus; tested at 33 μM; ET (Huh-lucubineo-ET) replicon cells, luciferase activity, relative to no compound control; read-out: % inhibition of replication. On the procedure: A cell line, ET (Huh-lucubineo-ET) was used for screening of compounds of the present invention for HCV RNA dependent RNA polymerase. The ET cell line was stably transfected with RNA transcripts harboring a I389luc-ubi-neo/NS3-3′/ET; replicon with firefly luciferase-ubiquitin-neomycin phosphotransferase fusion protein and EMCV-IRES driven NS3-5B polyprotein containing the cell culture adaptive mutations (E1202G; T1280I; K1846T) (Krieger at al, 2001 and unpublished). The ET cells were grown in DMEM, supplemented with 10% fetal calf serum, 2 mM Glutamine, Penicillin (100 IU/mL)/Streptomycin (100 μg/mL), 1× nonessential amino acids, and 250 μg/mL G418 (“Geneticin”). They were all available through Life Technologies (Bethesda, Md.). The cells were plated at 0.5-1.0×10^4 cells/well in the 96 well plates and incubated for 24 hrs before adding nucleoside analogs. Then the compounds were added to the cells to achieve a final concentration of 5 or 50 μM. Luciferase activity was measured 48-72 hours later by adding a lysis buffer and the substrate (Catalog number Glo-lysis buffer E2661 and Bright-Glo leuciferase system E2620 Promega, Madison, Wis.). Cells should not be too confluent during the assay. Percent inhibition of replication was plotted relative to no compound control. Under the same condition, cytotoxicity of the compounds was determined using cell proliferation reagent, WST-1 (Roche, Germany). The compounds showing potent antiviral activities, but no significant cytotoxicities were chosen for further evaluation. For these determinations, a 10-point, 2-fold serial dilution for each compound was used which spans a concentration range of 1000 fold. IC50 and TC50 values were calculated by fitting % inhibition at each concentration to the following equation: % inhibition=100%/[(IC50/[I])^b+1] where b is Hill's coefficient.
The % inhibition at a particular concentration was determined using the following equation: % Inhibition=100−[100*(Lum with inhibitor-bg)/(Lum with no inhibitor-bg)] where bg was the background with no replicon cell, and Lum was the luminescence intensity of the reporter luciferase gene.
(In general: In antiviral work, replicon cells carry a viral genome segment that copies itself.)
Take `Cc1nc(C)c(-c2ccc3cc(-c4c(C5CCCCC5)cc(C(=O)O)n4CC(=O)O)ccc3n2)s1` [Compound 30, 1-(carboxymethyl)-4-cyclohexyl-5-(2-(2,4-dimethylthiazol-5-yl)quinolin-6-yl)-1H-pyrrole-2-carboxylic acid]: the inhibition (usually the percentage by which the read-out fell short of the control) at 33 µM was 22%. With `Cc1nc(C)c(-c2ccc3cc(-c4c(C5CCCCC5)cc(C(=O)NCC(=O)O)n4CC(=O)N4CCOCC4)ccc3n2)s1` [Compound 33, 2-(4-cyclohexyl-5-(2-(2,4-dimethylthiazol-5-yl)quinolin-6-yl)-1-(2-morpholino-2-oxoethyl)-1H-pyrrole-2-carboxamido)acetic acid], the inhibition at 33 µM was found to be 17%. The figure for `Cc1nc(C)c(-c2ccc3cc(-c4c(C5CCCCC5)cc(C(=O)O)n4CC(=O)N4CCOCC4)ccc3n2)s1` [Compound 32, 4-cyclohexyl-5-(2-(2,4-dimethylthiazol-5-yl)quinolin-6-yl)-1-(2-morpholino-2-oxoethyl)-1H-pyrrole-2-carboxylic acid] is 57%; for `Cc1nc(C)c(-c2ccc3cc(-c4c(C5CCCCC5)cc(C(=O)O)n4CC(=O)OC(C)(C)C)ccc3n2)s1` [Compound 31, 1-((tert-butoxycarbonyl)methyl)-4-cyclohexyl-5-(2-(2,4-dimethylthiazol-5-yl)quinolin-6-yl)-1H-pyrrole-2-carboxylic acid] it is 48%.
